Experiments:
[1] = dCypher AlphaScreen Phase A, optimal reader concentration range; format: binding; details: 100 nM biotinylated peptide; 30 min + 60 min at 23 °C; AlphaLISA; n = 2
Method: Fig. 3 dCypher histone peptide-binding assays define the PTM recognition preference of PHD proteins with high sensitivity. a–h Binding curves to determine optimal reader protein concentration for full peptide library screening on the dCypher® AlphaScreen® platform (see “Methods”). X-axes are log(protein concentration (M)) at constant peptide concentration (100 nM); Y-axes are AlphaScreen counts, representing relative strength of binding (n = 2; error bars are S.D.). i Heat map represents relative binding to H3 N-terminal peptides (left) by PHD-containing GST-tagged proteins (top) using the dCypher AlphaScreen platform. Protein concentrations can be found in Additional file 5: Table S4. Binding strength is indicated by color gradient from green to yellow (stronger to weaker). The asterisk (*) by MLL5 signifies its general preference for H3K4 methylation. Alpha counts (n = 2) were normalized individually for each protein to the highest signal for each respective assay. For full dCypher peptide screen data, see Additional file 4: Table S3
We next employed a highly sensitive proximity-based AlphaScreen histone peptide assay (dCypher®) to provide a third and orthogonal approach to analyzing the histone binding preferences for a subset of the 31 PHD proteins with respect to various histone tail PTMs. In this assay, biotinylated peptides are bound to streptavidin “donor” beads and the GST-tagged reader domains bound to Glutathione “acceptor” beads. […] Initial binding assays were conducted for each fusion protein using three peptides [H3 (1–20) with K4me0, H3K4me3 or H3K9me3] to determine the optimal reader domain concentration for full peptide library studies (Fig. 3a–h; Additional file 4: Table S3 and Additional file 5: Table S4). […]
The dCypher peptide screen assay was performed as previously described. […] Plates were incubated at 23 °C in subdued lighting for 60 min and AlphaLISA signal measured on a PerkinElmer 2104 EnVision (680 nm laser excitation, 570 nm emission filter ± 50 nm bandwidth). […]

AIRE (PP) = assay: Histone peptide microarray; format: binding, human; details: sheet "Array Heatmap"; GST-tagged reader; histone peptide array, total n = 4
How it was run: (§1)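 Using an optimized microarray protocol, purified GST-tagged PHD fingers were incubated at 0.5 μM on 293 histone peptides with single or multiple modifications, and array signal was recorded as the average of 4 replicates.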

BAZ2B = assay: Histone peptide microarray; format: binding, human; details: sheet "Array Heatmap"; GST-tagged reader; histone peptide array, total n = 4
How it was run: as §1

BPTF (PB) = assay: Histone peptide microarray; format: binding, human; details: sheet "Array Heatmap"; GST-tagged reader; histone peptide array, total n = 4
How it was run: as §1

CHD4 (PPCC) = assay: Histone peptide microarray; format: binding, human; details: sheet "Array Heatmap"; GST-tagged reader; histone peptide array, total n = 4
How it was run: as §1

CHD5 (PCC) = assay: Histone peptide microarray; format: binding, human; details: sheet "Array Heatmap"; GST-tagged reader; histone peptide array, total n = 4
How it was run: as §1

CHD5 (PPCC) = assay: Histone peptide microarray; format: binding, human; details: sheet "Array Heatmap"; GST-tagged reader; histone peptide array, total n = 4
How it was run: as §1

DIDO1 = assay: Histone peptide microarray; format: binding, human; details: sheet "Array Heatmap"; GST-tagged reader; histone peptide array, total n = 4
How it was run: as §1

DPF2 (PPC2W2) = assay: Histone peptide microarray; format: binding, human; details: sheet "Array Heatmap"; GST-tagged reader; histone peptide array, total n = 4
How it was run: as §1

ING1 = assay: Histone peptide microarray; format: binding, human; details: sheet "Array Heatmap"; GST-tagged reader; histone peptide array, total n = 4
How it was run: as §1

ING2 = assay: Histone peptide microarray; format: binding, human; details: sheet "Array Heatmap"; GST-tagged reader; histone peptide array, total n = 4
How it was run: as §1

ING3 = assay: Histone peptide microarray; format: binding, human; details: sheet "Array Heatmap"; GST-tagged reader; histone peptide array, total n = 4
How it was run: as §1

ING4 = assay: Histone peptide microarray; format: binding, human; details: sheet "Array Heatmap"; GST-tagged reader; histone peptide array, total n = 4
How it was run: as §1

ING5 = assay: Histone peptide microarray; format: binding, human; details: sheet "Array Heatmap"; GST-tagged reader; histone peptide array, total n = 4
How it was run: as §1

KDM4C (TTP) = assay: Histone peptide microarray; format: binding, human; details: sheet "Array Heatmap"; GST-tagged reader; histone peptide array, total n = 4
How it was run: as §1

KDM5A (1) = assay: Histone peptide microarray; format: binding, human; details: sheet "Array Heatmap"; GST-tagged reader; histone peptide array, total n = 4
How it was run: as §1

KDM5A (3) = assay: Histone peptide microarray; format: binding, human; details: sheet "Array Heatmap"; GST-tagged reader; histone peptide array, total n = 4
How it was run: as §1

KDM5B (1) = assay: Histone peptide microarray; format: binding, human; details: sheet "Array Heatmap"; GST-tagged reader; histone peptide array, total n = 4
How it was run: as §1

KDM5B (3) = assay: Histone peptide microarray; format: binding, human; details: sheet "Array Heatmap"; GST-tagged reader; histone peptide array, total n = 4
How it was run: as §1

KDM7A = assay: Histone peptide microarray; format: binding, human; details: sheet "Array Heatmap"; GST-tagged reader; histone peptide array, total n = 4
How it was run: as §1

MLL5 = assay: Histone peptide microarray; format: binding, human; details: sheet "Array Heatmap"; GST-tagged reader; histone peptide array, total n = 4
How it was run: as §1

MORC3 (CW) = assay: Histone peptide microarray; format: binding, human; details: sheet "Array Heatmap"; GST-tagged reader; histone peptide array, total n = 4
How it was run: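 Steps: express and purify GST-tagged PHD reader; incubate 0.5 μM protein on a peptide microarray (293 histone peptides, single or combined PTMs) following an optimized protocol; average signal across 4 replicates.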

PHF13 = assay: Histone peptide microarray; format: binding, human; details: sheet "Array Heatmap"; GST-tagged reader; histone peptide array, total n = 4
How it was run: as §1

PHF21A = assay: Histone peptide microarray; format: binding, human; details: sheet "Array Heatmap"; GST-tagged reader; histone peptide array, total n = 4
How it was run: as §1

PHF23 = assay: Histone peptide microarray; format: binding, human; details: sheet "Array Heatmap"; GST-tagged reader; histone peptide array, total n = 4
How it was run: as §1

PHF2 = assay: Histone peptide microarray; format: binding, human; details: sheet "Array Heatmap"; GST-tagged reader; histone peptide array, total n = 4
How it was run: as §1

PHF8 = assay: Histone peptide microarray; format: binding, human; details: sheet "Array Heatmap"; GST-tagged reader; histone peptide array, total n = 4
How it was run: as §1

PHRF1 (RP) = assay: Histone peptide microarray; format: binding, human; details: sheet "Array Heatmap"; GST-tagged reader; histone peptide array, total n = 4
How it was run: as §1

RAG2 = assay: Histone peptide microarray; format: binding, human; details: sheet "Array Heatmap"; GST-tagged reader; histone peptide array, total n = 4
How it was run: as §1

SP140L = assay: Histone peptide microarray; format: binding, human; details: sheet "Array Heatmap"; GST-tagged reader; histone peptide array, total n = 4
How it was run: as §1

TAF3 = assay: Histone peptide microarray; format: binding, human; details: sheet "Array Heatmap"; GST-tagged reader; histone peptide array, total n = 4
How it was run: as §1

TRIM66 (PB) = assay: Histone peptide microarray; format: binding, human; details: sheet "Array Heatmap"; GST-tagged reader; histone peptide array, total n = 4
How it was run: as §1

H3K4me0 readers = assay: dCypher AlphaScreen Phase B (full peptide screen), H3K4me0 readers together; format: binding, human; details: 100 nM peptide, 23 °C, n = 2
Method: Fig. 3 dCypher histone peptide-binding assays define the PTM recognition preference of PHD proteins with high sensitivity. a–h Binding curves to determine optimal reader protein concentration for full peptide library screening on the dCypher® AlphaScreen® platform (see “Methods”). X-axes are log(protein concentration (M)) at constant peptide concentration (100 nM); Y-axes are AlphaScreen counts, representing relative strength of binding (n = 2; error bars are S.D.). i Heat map represents relative binding to H3 N-terminal peptides (left) by PHD-containing GST-tagged proteins (top) using the dCypher AlphaScreen platform. Protein concentrations can be found in Additional file 5: Table S4. […]
Once the optimal protein concentration ranges for each of the eight readers were determined, we conducted the full dCypher peptide screen (293 histone peptides) (Fig. 3i; Additional file 4: Table S3).
The dCypher peptide screen assay was performed as previously described. Briefly, 5 μL of GST-tagged reader domains (optimal protein concentration for library screening determined by initial binding curves to candidate peptides) were incubated with 5 μL of 400 nM (100 nM Final) biotinylated histone peptides (EpiCypher) for 30 min at 23 °C in 1× AlphaLISA Epigenetics buffer + epigenetics buffer supplement (PerkinElmer, AL1008) in a 384-well plate. […]

Substance: KDM7A: GST-tagged PHD, 1-100
- Phase A Optimal Range (reader concentration) [1]: 0.05 to 1 nM

Substance: DIDO1: GST-tagged PHD, 250-340
- Phase A Optimal Range (reader concentration) [1]: 0.015 to 0.5 nM

Substance: MLL5: GST-tagged PHD, 100-180
- Phase A Optimal Range (reader concentration) [1]: 0.015 to 0.05 nM

Substance: H3K9me3 + S10p: H3 1-20
- Array Heatmap signal, AIRE (PP) (AIRE (PP)): 0.5449
- Array Heatmap signal, BAZ2B (BAZ2B): 0.4277
- Array Heatmap signal, BPTF (PB) (BPTF (PB)): 0.3029
- Array Heatmap signal, CHD4 (PPCC) (CHD4 (PPCC)): 0.5281
- Array Heatmap signal, CHD5 (PCC) (CHD5 (PCC)): 0.7991
- Array Heatmap signal, CHD5 (PPCC) (CHD5 (PPCC)): 0.486
- Array Heatmap signal, DIDO1 (DIDO1): 0.5964
- Array Heatmap signal, DPF2 (PPC2W2) (DPF2 (PPC2W2)): 0.6544
- Array Heatmap signal, ING1 (ING1): 0.4648
- Array Heatmap signal, ING2 (ING2): 0.5763
- Array Heatmap signal, ING3 (ING3): 0.3956
- Array Heatmap signal, ING4 (ING4): 0.3907
- Array Heatmap signal, ING5 (ING5): 0.3112
- Array Heatmap signal, KDM4C (TTP) (KDM4C (TTP)): 0.4574
- Array Heatmap signal, KDM5A (1) (KDM5A (1)): 0.4357
- Array Heatmap signal, KDM5A (3) (KDM5A (3)): 0.3848
- Array Heatmap signal, KDM5B (1) (KDM5B (1)): 0.7016
- Array Heatmap signal, KDM5B (3) (KDM5B (3)): 0.4113
- Array Heatmap signal, KDM7A (KDM7A): 0.3788
- Array Heatmap signal, MLL5 (MLL5): 0.5167
- Array Heatmap signal, MORC3 (CW) (MORC3 (CW)): 0.3534
- Array Heatmap signal, PHF13 (PHF13): 0.5317
- Array Heatmap signal, PHF21A (PHF21A): 0.4454
- Array Heatmap signal, PHF23 (PHF23): 0.4606
- Array Heatmap signal, PHF2 (PHF2): 0.4043
- Array Heatmap signal, PHF8 (PHF8): 0.3127
- Array Heatmap signal, PHRF1 (RP) (PHRF1 (RP)): 0.515
- Array Heatmap signal, RAG2 (RAG2): 0.2135
- Array Heatmap signal, SP140L (SP140L): 0.319
- Array Heatmap signal, TAF3 (TAF3): 0.2418
- Array Heatmap signal, TRIM66 (PB) (TRIM66 (PB)): 0.578
- loss of binding on S10 phosphorylation (H3K4me0 readers): four out of five of the H3K4me0 readers lose binding capacity

Reference: article PMC6979384, “Characterization of the plant homeodomain (PHD) reader family for their histone tail interactions” (Epigenetics & Chromatin, 2020)
